Assay results: US20110190165A1, “HIGH THROUGHPUT METHODS OF IDENTIFYING NEUTRAL LIPID SYNTHASES” (priority 2008, published 2011)

Legend:
[1] = tested in humans; cited from earlier work
ACAT = settings: ACAT1 vs ACAT2; cited from earlier work
[2] = test system: quadruple knock-out strain cultures harboring vector with either DGAT1 or LacZ gene; assay: Growth of quadruple knock-out yeast expressing DGAT1 or LacZ on solid medium supplemented with fatty acids; type: cell-based, Saccharomyces cerevisiae; settings: for selectivity of the media at lowered concentration: 0.5 mM fatty acid; for suitability for selection: 0.5 mM (500 μM) fatty acid; for growth of DGAT1 and LacZ cultures: 1 mM fatty acid
Experimental: (A) Plates of YNBG with and without supplement of 1 mM of oleic acid (C18:1) dissolved in ethanol. The plate without FA contained the same volume of ethanol only. (B) Plates of YNBG supplemented with 1 mM of palmitoleic (16:1^cisΔ9), linoleic (18:2^cisΔ9,12), α-linolenic (C18:3), docosahexaenoic (C22:6), ricinoleic (C18:1 OH), erucic (C22:1) and 0.5 mM of palmitic (C16:0) and stearic (C18:0) acids. The FAs were dissolved in ethanol at 0.5M or 0.25M and added to the YNBG prior to plating. (C) Plates supplemented with oleic, α-linolenic and docosahexaenoic acids at the final concentrations indicated. (D) Selection of yeast cells in medium with FA after transformation. H1246 cells were transformed with 1 μg of pYESBnDGAT1 (column 1), 1 μg of pYESLacZ (column 2) and 0.1 μg of pYESBnDGAT1 mixed with 0.9 μg of pYESLacZ (column 3). After transformation, yeast cells were recovered in liquid YNBD medium for 6 hours, inoculated in YNBG plates with or without supplement of 1 mM oleic acid and incubated at 30° C. for 6 days.

[3] = test system: S. cerevisiae strain H1246 (quadruple knock-out); assay: Growth of knock-out yeast in liquid medium supplemented with oleic acid; settings: growth measured for 72 hours
Experimental: Oleic acid, dissolved in ethanol at 0.5M, was supplemented to the cultures at the final concentrations indicated. The cultures were incubated at 30 °C, 250 rpm and the growth was monitored for 72 hours.
Three yeast strains (wild type, dga1 knock-out and quadruple knock-out) were transformed with yeast expression vector pYES2.1-TOPO (Invitrogen) containing a cDNA coding for DGAT1 from several oilseed plants (canola, flax or castor bean). The same vector containing the gene coding for the bacterial protein LacZ served as the negative control. Transformed yeast cells were cultivated in 50 mL of uracil drop-out medium supplemented with 2% glucose for 48 hours shaking at 30° C. and 250 rpm. The cells were washed twice with water and inoculated in liquid media supplemented with 2% galactose, 1% raffinose to induce the expression of the recombinant proteins, and different concentrations of free fatty acids (0 to 1000 μM of oleic acid). […] Cell growth was measured for a period of 72 hours.

Q: Which results are given for `CC(C)c1cc(C(C)C)c(CC(=O)NS(=O)(=O)Oc2c(C(C)C)cccc2C(C)C)c(C(C)C)c1` [avasimibe]?
A: efficacy against atherosclerosis [1]: ineffective against atherosclerosis; harm [1]: probably harmful due to ACAT1 inhibition; selectivity among ACAT isoforms (ACAT): nonselective ACAT inhibitors

Q: For `CCCCCCCCCCCCCCCCCC(=O)O` [stearic, stearic acid], which “selectivity of the media at lowered concentration” value [2] is on record?
A: Its value is “did not substantially improve the selectivity”.

Q: For `CCCCCCCCCCCCCCCC(=O)O` [palmitic, palmitic acid], which “selectivity of the media at lowered concentration” value [2] is on record?
A: Its value is “did not substantially improve the selectivity”.

Q: Which suitability for selection [2] does the source give for `CC/C=C\C/C=C\C/C=C\CCCCCCCC(=O)O` [α-linolenic, α-linolenic acid] here?
A: The suitability for selection was “suitable for selection”.

Q: What about the “growth of DGAT1 and LacZ cultures” value [2] of the same compound?
A: The value was “inhibited the growth of both cultures”.

Q: Which results are given for `CCCCCCCC/C=C\CCCCCCCC(=O)O` [oleic acid]?
A: colony formation on solid medium ([2]; 1000 μM oleic acid, five days at 30° C., DGAT1 vs LacZ): only the cells expressing the recombinant DGAT1 formed visible colonies; concentration most effective in distinguishing strains with and without TAG synthase activity [3]: 1000 µM; lowest concentration at which the inhibitory effect on growth was observed ([3]; knock-out strains without recombinant DGAT1): 25 µM

Q: With `CCCCC/C=C\C/C=C\CCCCCCCC(=O)O` [linoleic, linoleic acid] as the compound, how does the suitability for selection [2] read?
A: Its suitability for selection is “suitable for selection”.

Q: And the “growth of DGAT1 and LacZ cultures” value [2]?
A: The value was “inhibited the growth of both cultures”.

Q: What does the source list for `CCCCCCCCN1CCc2c(C)c(CC(=O)O)c(C)c(NC(=O)C(C)(C)C)c21` [pactimibe]?
A: efficacy against atherosclerosis [1]: ineffective against atherosclerosis; harm [1]: probably harmful due to ACAT1 inhibition; selectivity among ACAT isoforms (ACAT): nonselective ACAT inhibitors

Q: With `CCCCCCCC/C=C\CCCCCCCCCCCC(=O)O` [erucic, erucic acid] as the compound, how does the “selectivity of the media at lowered concentration” value [2] read?
A: The value was “did not substantially improve the selectivity”.
